# pIC50: −log10 of the molar value.
# Legend:
# [1] = target: recombinant human NF-kappaB-inducing kinase (NIK/MAP3K14) (Homo sapiens (Human), UniProt Q99558); assay: Inhibition of auto-phosphorylation of recombinant human NIK/MAP3K14 (AlphaScreen); format: biochemical; settings: NIK auto-phosphorylation, 5 μM ATP, 1 nM NIK, 2 h at 25° C.; average of values
# Outline: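 AlphaScreen read-out (anti-phospho-IKK Ser176/180 antibody, Protein A acceptor and glutathione donor beads) of NIK auto-phosphorylation. Reaction: 1 nM enzyme, 5 μM ATP, Tris pH 7.5 buffer with Mg2+ and vanadate, 2 h at 25° C., final DMSO 0.7%. IC50 came from a sigmoidal curve fit.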
# [2] = system: p-IKKα levels in L363 (NIK translocated multiple myeloma) cells; assay: Effect of compounds on p-IKKα levels in L363 cells (AlphaLISA SureFire Ultra); format: cell-based, human; settings: Homo sapiens, L-363, 6 h, BAFF stimulated, MG132, 6 h, average of values, read-out: Assay 2 IC50
# Outline: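 Inhibition of p-IKKα (Ser176/180) read by AlphaLISA after 6 h, 37 °C compound exposure (11-point 1:3 series, 0.3% DMSO) of L363 cells pre-incubated overnight ± 250 ng/ml BAFF and plated ± BAFF ± 10 μM MG132. Normalised to BAFF/MG132/DMSO and unstimulated controls; IC50 by sigmoidal fitting, duplicates.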
# Sequence of recombinant human NF-kappaB-inducing kinase (NIK/MAP3K14) (Q99558 whole entry): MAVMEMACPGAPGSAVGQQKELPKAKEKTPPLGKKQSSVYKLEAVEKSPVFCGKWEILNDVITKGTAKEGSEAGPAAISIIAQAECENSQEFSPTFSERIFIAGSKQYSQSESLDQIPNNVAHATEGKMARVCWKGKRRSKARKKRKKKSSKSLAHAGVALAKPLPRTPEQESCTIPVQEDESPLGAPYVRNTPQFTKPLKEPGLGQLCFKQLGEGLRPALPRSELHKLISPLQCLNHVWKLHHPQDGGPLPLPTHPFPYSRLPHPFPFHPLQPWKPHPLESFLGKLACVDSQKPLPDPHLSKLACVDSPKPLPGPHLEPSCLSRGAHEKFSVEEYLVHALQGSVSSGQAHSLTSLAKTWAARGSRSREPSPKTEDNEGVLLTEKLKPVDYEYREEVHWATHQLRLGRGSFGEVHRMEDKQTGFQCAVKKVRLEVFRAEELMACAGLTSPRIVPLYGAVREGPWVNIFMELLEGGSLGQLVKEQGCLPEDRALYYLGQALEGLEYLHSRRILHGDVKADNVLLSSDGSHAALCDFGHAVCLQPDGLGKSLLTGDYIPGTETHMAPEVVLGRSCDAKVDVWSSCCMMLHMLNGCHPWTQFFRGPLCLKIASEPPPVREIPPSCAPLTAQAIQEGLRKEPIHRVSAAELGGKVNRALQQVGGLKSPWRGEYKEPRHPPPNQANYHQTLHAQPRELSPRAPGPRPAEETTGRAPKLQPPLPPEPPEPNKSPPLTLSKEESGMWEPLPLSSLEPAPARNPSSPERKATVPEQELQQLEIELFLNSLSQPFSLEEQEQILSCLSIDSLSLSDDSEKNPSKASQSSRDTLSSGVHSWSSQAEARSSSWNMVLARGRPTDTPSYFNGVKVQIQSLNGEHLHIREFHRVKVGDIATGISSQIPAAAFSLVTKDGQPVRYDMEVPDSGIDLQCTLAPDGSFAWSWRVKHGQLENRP
SMILES,pIC50 [1],pIC50 [2]
"CN1CC[C@@](O)(C#Cc2cccc(-c3ccc4ccnc(N5CCC5)c4n3)c2)C1=O [Example 233, (R)-3-((3-(8-(Azetidin-1-yl)-1,7-naphthyridin-2-yl)phenyl)ethynyl)-3-hydroxy-1-methylpyrrolidin-2-one]",6.28,< 5.30
"CN1CC[C@@](O)(C#Cc2cccc(-c3ccc4ncnc(N5CC(F)C5)c4n3)c2)C1=O [Example 239, (R)-3-((3-(4-(3-Fluoroazetidin-1-yl)pyrido[3,2-d]pyrimidin-6-yl)phenyl)ethynyl)-3-hydroxy-1-methylpyrrolidin-2-one]",8.82,7.16
"Cc1cc2ncnc(N)c2nc1-c1cccc(C#C[C@]2(O)CCN(C)C2=O)c1 [Example 189, (R)-3-((3-(4-Amino-7-methylpyrido[3,2-d]pyrimidin-6-yl)phenyl)ethynyl)-3-hydroxy-1-methylpyrrolidin-2-one]",8.74,7.15
"Cc1nc(N)c2nc(-c3cccc(C#C[C@]4(O)CCN(C)C4=O)c3)c(C)cc2n1 [Example 178, (R)-3-((3-(4-Amino-2,7-dimethylpyrido[3,2-d]pyrimidin-6-yl)phenyl)ethynyl)-3-hydroxy-1-methylpyrrolidin-2-one]",7.74,6.09
"Cc1csc([C@@](C)(O)C#Cc2cccc(-c3ccc4nc(C)nc(N)c4n3)c2)n1 [Example 181, (S)-4-(3-(4-Amino-2-methylpyrido[3,2-d]pyrimidin-6-yl)phenyl)-2-(4-methylthiazol-2-yl)but-3-yn-2-ol]",< 5.30,< 5.30
"Cc1nnc([C@](C)(O)C#Cc2ccc(C)c(-c3ncc4ccnc(N)c4n3)c2)o1 [Example 74, (R)-4-(3-(8-Aminopyrido[3,4-d]pyrimidin-2-yl)-4-methylphenyl)-2-(5-methyl-1,3,4-oxadiazol-2-yl)but-3-yn-2-ol]",7.25,5.53
"CN1CC[C@@](O)(C#Cc2cccc(-c3ccc4ncnc(NC5CCC5)c4n3)c2)C1=O [Example 236, (R)-3-((3-(4-(Cyclobutylamino)pyrido[3,2-d]pyrimidin-6-yl)phenyl)ethynyl)-3-hydroxy-1-methylpyrrolidin-2-one]",7.24,5.86
"CC(C)Cc1ccc(C#C[C@]2(O)CCN(C)C2=O)cc1-c1ncc2ccnc(N)c2n1 [Example 54, (R)-3-((3-(8-Aminopyrido[3,4-d]pyrimidin-2-yl)-4-isobutylphenyl)ethynyl)-3-hydroxy-1-methylpyrrolidin-2-one]",8.00,6.55
"Cc1nnc([C@](C)(O)C#Cc2cccc(-c3ccc4ncnc(N)c4c3)c2)o1 [Example 106, (R)-4-[3-(4-Aminoquinazolin-6-yl)phenyl]-2-(5-methyl-1,3,4-oxadiazol-2-yl)but-3-yn-2-ol]",7.85,5.84
"CN1CC[C@](O)(C#Cc2cccc(-c3ncc4cc[nH]c(=O)c4n3)c2)C1=O [Example 31, (S)-2-[3-[2-(3-Hydroxy-1-methyl-2-oxo-pyrrolidin-3-yl)ethynyl]phenyl]-7H-pyrido[3,4-d]pyrimidin-8-one]",7.64,6.26
"CN(C)Cc1cnc(N)c2nc(-c3cccc(C#C[C@]4(O)CCN(C)C4=O)c3)ccc12 [Example 172, (R)-3-[2-[3-[8-Amino-5-(dimethylaminomethyl)-1,7-naphthyridin-2-yl]phenyl]ethynyl]-3-hydroxy-1-methyl-pyrrolidin-2-one]",7.70,6.40
"Cc1nc(N)c2nc(-c3cccc(C#C[C@@](C)(O)c4cscn4)c3)ccc2n1 [Example 212, (R)-4-[3-(4-Amino-2-methyl-pyrido[3,2-d]pyrimidin-6-yl)phenyl]-2-thiazol-4-yl-but-3-yn-2-ol]",9.15,7.23
"[2H]C([2H])([2H])N1CC[C@@](O)(C#Cc2ccc(C)c(-c3nc4c(N)ncnc4s3)c2)C1=O [Example 216, (R)-3-[2-[3-(7-Aminothiazolo[5,4-d]pyrimidin-2-yl)-4-methyl-phenyl]ethynyl]-3-hydroxy-1-(trideuteriomethyl)pyrrolidin-2-one]",≥ 9.30,8.07
"Cc1cnc(N)c2nc(-c3cccc(C#C[C@]4(O)CCN(C)C4=O)c3)nc(C)c12 [Example 138, (R)-3-((3-(8-Amino-4,5-dimethylpyrido[3,4-d]pyrimidin-2-yl)phenyl)ethynyl)-3-hydroxy-1-methylpyrrolidin-2-one]",≥ 9.30,8.02
